Assay results taken from PubChem BioAssay AID248 (DTP/NCI, 2004).
Where “and” joins values, the source holds several entries; their conditions need not be identical. Identical values can stand only once. Inconclusive results and toxic doses are left out. Rule as the data show it: active = T/C of 150% or more; inactive = T/C below 125%.

Tested on: L1210 leukemia ip in BDF1 mice, survival T/C
Experiment: NCI In Vivo Anticancer Drug Screen. Data for tumor model L1210 Leukemia (intraperitoneal) in B6D2F1 (BDF1) mice
Conditions: endpoint: mean survival time, higher = longer survival
In short: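 Value reflects the ratio of survival in compound-treated mice to survival in vehicle-treated controls, with both groups carrying the same transplanted tumor.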

[1] = dose: 100.0 mg/kg/injection, schedule: Q04DX003 (ip), vehicle: saline
[2] = dose: 200.0 mg/kg/injection, schedule: Q04DX003 (ip), vehicle: saline
[3] = dose: 100.0 mg/kg/injection, schedule: Q01DX009 (ip), vehicle: Klucel (hydroxypropylcellulose) (HPC)
[4] = dose: 100.0 mg/kg/injection, schedule: Q04DX003 (ip), vehicle: Klucel (hydroxypropylcellulose) (HPC)
[5] = dose: 200.0 mg/kg/injection, schedule: Q01DX009 (ip), vehicle: Klucel (hydroxypropylcellulose) (HPC)
[6] = dose: 200.0 mg/kg/injection, schedule: Q04DX003 (ip), vehicle: Klucel (hydroxypropylcellulose) (HPC)
[7] = dose: 400.0 mg/kg/injection, schedule: Q01DX009 (ip), vehicle: Klucel (hydroxypropylcellulose) (HPC)
[8] = dose: 400.0 mg/kg/injection, schedule: Q04DX003 (ip), vehicle: Klucel (hydroxypropylcellulose) (HPC)
[9] = dose: 100.0 mg/kg/injection, schedule: Q04DX002 (ip), vehicle: Klucel (hydroxypropylcellulose) (HPC)
[10] = dose: 200.0 mg/kg/injection, schedule: Q04DX002 (ip), vehicle: Klucel (hydroxypropylcellulose) (HPC)
[11] = dose: 400.0 mg/kg/injection, schedule: Q04DX002 (ip), vehicle: Klucel (hydroxypropylcellulose) (HPC)
[12] = dose: 100.0 mg/kg/injection, schedule: Q01DX009 (ip), vehicle: saline with Tween-80
[13] = dose: 200.0 mg/kg/injection, schedule: Q01DX009 (ip), vehicle: saline with Tween-80
[14] = dose: 400.0 mg/kg/injection, schedule: Q01DX009 (ip), vehicle: saline with Tween-80
[15] = dose: 100.0 mg/kg/injection, schedule: Q01DX001 (ip), vehicle: carboxymethylcellulose (CMC)
[16] = dose: 200.0 mg/kg/injection, schedule: Q01DX001 (ip), vehicle: carboxymethylcellulose (CMC)
[17] = dose: 400.0 mg/kg/injection, schedule: Q01DX001 (ip), vehicle: carboxymethylcellulose (CMC)
[18] = dose: 100.0 mg/kg/injection, schedule: Q04DX003 (ip), vehicle: saline with Tween-80
[19] = dose: 200.0 mg/kg/injection, schedule: Q04DX003 (ip), vehicle: saline with Tween-80
[20] = dose: 100.0 mg/kg/injection, schedule: Q01DX001 (ip), vehicle: saline
[21] = dose: 200.0 mg/kg/injection, schedule: Q01DX001 (ip), vehicle: saline
[22] = dose: 400.0 mg/kg/injection, schedule: Q01DX001 (ip), vehicle: saline
[23] = dose: 75.0 mg/kg/injection, schedule: Q01DX001 (ip), vehicle: saline

Measured: T/C

CCOC(=O)C(C)(C)CSC(C)(C)C(=O)OCC
inactive: [1] 110 % of control | [2] 101 % of control | dose: 400.0 mg/kg/injection, schedule: Q04DX003 (ip), vehicle: saline 110 % of control

O=[N+]([O-])c1cc(Br)c(N2CCCC2)cc1N1CCCC1
inactive: [3] 106 % of control | [4] 104 % of control | [5] 106 % of control | [6] 93 % of control | [7] 98 % of control | [8] 88 % of control

O=C(Nc1ccc(/C=C/c2ccc(NC(=O)Nc3cccc(C4=NCCN4)c3)cc2)cc1)Nc1cccc(C2=NCCN2)c1
inactive: dose: 3.75 mg/kg/injection, schedule: Q01DX Z (ip), vehicle: carboxymethylcellulose (CMC) 93 % of control | dose: 7.5 mg/kg/injection, schedule: Q01DX Z (ip), vehicle: carboxymethylcellulose (CMC) 98 % of control | dose: 15.0 mg/kg/injection, schedule: Q01DX Z (ip), vehicle: carboxymethylcellulose (CMC) 96 % of control | dose: 50.0 mg/kg/injection, schedule: Q01DX Z (ip), vehicle: carboxymethylcellulose (CMC) 103 % of control | dose: 100.0 mg/kg/injection, schedule: Q01DX Z (ip), vehicle: carboxymethylcellulose (CMC) 102 % of control | dose: 200.0 mg/kg/injection, schedule: Q01DX Z (ip), vehicle: carboxymethylcellulose (CMC) 97 % of control

N#Cc1c(O)ccc(O)c1C#N
inactive: [3] 87 % of control | [9] 90 % of control | [5] 87 % of control | [10] 93 % of control | [7] 94 % of control | [11] 96 % of control

Nc1nc(N)nc(SCCOCCSc2nc(N)nc(N)n2)n1
inactive: [12] 103 % of control | [13] 94 % of control | [14] 92 % of control

C=CCNC(=S)N(CCC#N)C1CCCCC1
inactive: dose: 100.0 mg/kg/injection, schedule: Q04DX002 (ip), vehicle: saline with Tween-80 101 % of control | dose: 200.0 mg/kg/injection, schedule: Q04DX002 (ip), vehicle: saline with Tween-80 90 % of control | dose: 400.0 mg/kg/injection, schedule: Q04DX002 (ip), vehicle: saline with Tween-80 93 % of control

COc1ccc(C2C(=O)NN=C2C)cc1 (centres undefined)
inactive: [15] 96 % of control | [16] 96 % of control | [17] 102 % of control

Cc1cn(-c2ccccc2)c(=O)[nH]c1=O
inactive: dose: 100.0 mg/kg/injection, schedule: Q01DX001 (ip), vehicle: other 112 % of control

c1ccc(C2C(c3ccccc3)C(c3ccccc3)C2c2ccccc2)cc1 (centres undefined)
inactive: dose: 75.0 mg/kg/injection, schedule: Q01DX001 (ip), vehicle: carboxymethylcellulose (CMC) 91 % of control | dose: 150.0 mg/kg/injection, schedule: Q01DX001 (ip), vehicle: carboxymethylcellulose (CMC) 94 % of control | dose: 300.0 mg/kg/injection, schedule: Q01DX001 (ip), vehicle: carboxymethylcellulose (CMC) 88 % of control

O=S(=O)(Oc1ccc(Cl)cc1Cl)c1ccc(Cl)cc1
inactive: dose: 75.0 mg/kg/injection, schedule: Q04DX003 (ip), vehicle: Klucel (hydroxypropylcellulose) (HPC) 93 % of control | dose: 150.0 mg/kg/injection, schedule: Q04DX003 (ip), vehicle: Klucel (hydroxypropylcellulose) (HPC) 101 % of control | dose: 300.0 mg/kg/injection, schedule: Q04DX003 (ip), vehicle: Klucel (hydroxypropylcellulose) (HPC) 90 % of control

CC(=O)c1ccc(Oc2ccc([N+](=O)[O-])cc2)cc1
inactive: [4] 98 % of control | [6] 96 % of control | [8] 101 % of control

C=COCCCCOC=C
inactive: [4] 113 % of control | [6] 105 % of control | [8] 105 % of control

NC1C(=O)NC(=O)NC1=O
inactive: dose: 50.0 mg/kg/injection, schedule: Q01DX009 (ip), vehicle: carboxymethylcellulose (CMC) 100 % of control | dose: 100.0 mg/kg/injection, schedule: Q01DX009 (ip), vehicle: carboxymethylcellulose (CMC) 103 % of control | [9] 102 % of control | dose: 200.0 mg/kg/injection, schedule: Q01DX009 (ip), vehicle: carboxymethylcellulose (CMC) 92 % of control | [10] 104 % of control

NCCNC(=S)S
inactive: dose: 100.0 mg/kg/injection, schedule: Q01DX001 (ip), vehicle: Klucel (hydroxypropylcellulose) (HPC) 103 % of control | [12] 93 % of control | [18] 93 % of control | dose: 200.0 mg/kg/injection, schedule: Q01DX001 (ip), vehicle: Klucel (hydroxypropylcellulose) (HPC) 95 % of control | [13] 87 % of control | [19] 95 % of control | dose: 400.0 mg/kg/injection, schedule: Q01DX001 (ip), vehicle: Klucel (hydroxypropylcellulose) (HPC) 103 % of control | [14] 86 % of control | dose: 400.0 mg/kg/injection, schedule: Q04DX003 (ip), vehicle: saline with Tween-80 91 % of control

CNC(=O)CS(=O)(=O)c1ccc(C)cc1
inactive: [20] 97 % of control | [21] 95 % of control | [22] 93 % of control

CN1CC(=O)NC1=O
inactive: dose: 250.0 mg/kg/injection, schedule: Q01DX Z (ip), vehicle: saline 94 % of control | dose: 500.0 mg/kg/injection, schedule: Q01DX Z (ip), vehicle: saline 97 % of control | dose: 1000.0 mg/kg/injection, schedule: Q01DX Z (ip), vehicle: saline 96 % of control

ClC(Cl)(Cl)c1nc2nccnc2[nH]1
inactive: dose: 25.0 mg/kg/injection, schedule: Q04DX003 (ip), vehicle: saline with Tween-80 98 % of control | dose: 50.0 mg/kg/injection, schedule: Q04DX003 (ip), vehicle: saline with Tween-80 97 % of control | dose: 100.0 mg/kg/injection, schedule: Q04DX003 (ip), vehicle: saline sonified 96 % of control | [18] 110 % of control

C=CC1CN2CCC1CC2C(O)c1ccnc2ccc(OC)cc12 (centres undefined) (tested in a mixture with another compound)
inactive: dose: 50.0 mg/kg/injection, schedule: Q01DX009 (ip), vehicle: Klucel (hydroxypropylcellulose) (HPC) 97 % of control and 95 % of control | dose: 50.0 mg/kg/injection, schedule: Q01DX009 (ip), vehicle: saline with Tween-80 95 % of control | dose: 50.0 mg/kg/injection, schedule: Q04DX003 (ip), vehicle: other 95 % of control | [23] 100 % of control and 99 % of control | [15] 98 % of control | dose: 100.0 mg/kg/injection, schedule: Q01DX001 (ip), vehicle: saline with Tween-80 96 % of control | [3] 97 % of control and 104 % of control | [12] 95 % of control | [9] 107 % of control | [4] 93 % of control | dose: 100.0 mg/kg/injection, schedule: Q04DX003 (ip), vehicle: other 103 % of control | [18] 103 % of control | [1] 102 % of control | dose: 150.0 mg/kg/injection, schedule: Q01DX001 (ip), vehicle: saline 86 % of control and 99 % of control | [16] 102 % of control | dose: 200.0 mg/kg/injection, schedule: Q01DX001 (ip), vehicle: saline with Tween-80 96 % of control | [5] 97 % of control | [13] 101 % of control | [10] 96 % of control | [6] 93 % of control | dose: 200.0 mg/kg/injection, schedule: Q04DX003 (ip), vehicle: other 93 % of control | [19] 87 % of control | [2] 96 % of control | dose: 300.0 mg/kg/injection, schedule: Q01DX001 (ip), vehicle: saline 89 % of control and 91 % of control | [17] 93 % of control | dose: 400.0 mg/kg/injection, schedule: Q01DX001 (ip), vehicle: saline with Tween-80 93 % of control | [11] 100 % of control

Cc1c(C(C)(C)c2ccccc2)[nH]c2ccc(C(C)(C)c3ccccc3)cc12
inactive: [20] 88 % of control | [21] 86 % of control | [22] 96 % of control

CC(C)(O)CNC1CCCCC1
inactive: [23] 108 % of control

CCN(CC)CC[N-]CCN(CC)CC.[Cl][Pt]
inactive: [20] 97 % of control
